{"source": "patent US8592152B2", "about": "“Gene detection assay for improving the likelihood of an effective response to an EGFR antagonist cancer therapy” (Genentech, Inc., priority 2000, dated 2013)", "tested_on": "metastatic breast cancer", "experiment": "FISH/clinical outcome study: chemotherapy +/- Herceptin, 1st line therapy", "format": "in vivo, human", "procedure": "The Clinical Testing Assay (CTA) involves two separate IHC assays performed with either monoclonal antibodies 4D5 (after protease digestion of the formalin fixed sample) or CB11 (after heat treatment of the formalin fixed sample). Subjects were eligible if either assay was scored at 2+ or 3+. If both were performed, the final score was the higher of the two results. […] Thus, formalin-fixed cut sections stored between 2.5 and 4.5 years from 540 subjects provided the sample pool for this study.", "data": [{"compound": "CC(=O)O[C@H]1C(=O)[C@@]2(C)[C@H]([C@H](OC(=O)c3ccccc3)[C@]3(O)C[C@H](OC(=O)[C@H](O)[C@@H](NC(=O)c4ccccc4)c4ccccc4)C(C)=C1C3(C)C)[C@]1(OC(C)=O)CO[C@@H]1C[C@@H]2O", "note": "[P, Paditaxol]", "values": [{"measurement": "Response rate of newly defined populations", "setting": "2+/3+ population (469)", "result": 17}, {"measurement": "Survival of newly defined populations", "setting": "2+/3+ population (469)", "result": 18, "unit": "months"}, {"measurement": "Time to progression of newly defined populations", "setting": "2+/3+ population (469)", "result": 2.7, "unit": "months"}, {"measurement": "Response rate of newly defined populations", "setting": "3+ population (349)", "result": 17}, {"measurement": "Survival of newly defined populations", "setting": "3+ population (349)", "result": 18, "unit": "months"}, {"measurement": "Time to progression of newly defined populations", "setting": "3+ population (349)", "result": 3.0, "unit": "months"}, {"measurement": "Response rate of newly defined populations", "setting": "FISH+ population (240)", "result": 14}, {"measurement": "Survival of newly defined populations", "setting": "FISH+ population (240)", "result": 14, "unit": "months"}, {"measurement": "Time to progression of newly defined populations", "setting": "FISH+ population (240)", "result": 3.2, "unit": "months"}]}, {"compound": "adrinomycin and cyclophosphamide [AC]", "values": [{"measurement": "Response rate of newly defined populations", "setting": "2+/3+ population (469)", "result": 42}, {"measurement": "Survival of newly defined populations", "setting": "2+/3+ population (469)", "result": 21, "unit": "months"}, {"measurement": "Time to progression of newly defined populations", "setting": "2+/3+ population (469)", "result": 6.1, "unit": "months"}, {"measurement": "Response rate of newly defined populations", "setting": "3+ population (349)", "result": 42}, {"measurement": "Survival of newly defined populations", "setting": "3+ population (349)", "result": 21, "unit": "months"}, {"measurement": "Time to progression of newly defined populations", "setting": "3+ population (349)", "result": 6.0, "unit": "months"}, {"measurement": "Response rate of newly defined populations", "setting": "FISH+ population (240)", "result": 40}, {"measurement": "Survival of newly defined populations", "setting": "FISH+ population (240)", "result": 20, "unit": "months"}, {"measurement": "Time to progression of newly defined populations", "setting": "FISH+ population (240)", "result": 6.2, "unit": "months"}]}]}
